IC50 data for 30 compounds are collected here from patent US20240308992A1 (Biopolar Youtang(Guangdong) Pharmaceutical Co., Ltd., priority 2021, published 2024).

The structures appear in SMILES notation.

For this test, the target named is T1, Drak2 (Homo sapiens, UniProt O94768).
T1 sequence (O94768 1-372): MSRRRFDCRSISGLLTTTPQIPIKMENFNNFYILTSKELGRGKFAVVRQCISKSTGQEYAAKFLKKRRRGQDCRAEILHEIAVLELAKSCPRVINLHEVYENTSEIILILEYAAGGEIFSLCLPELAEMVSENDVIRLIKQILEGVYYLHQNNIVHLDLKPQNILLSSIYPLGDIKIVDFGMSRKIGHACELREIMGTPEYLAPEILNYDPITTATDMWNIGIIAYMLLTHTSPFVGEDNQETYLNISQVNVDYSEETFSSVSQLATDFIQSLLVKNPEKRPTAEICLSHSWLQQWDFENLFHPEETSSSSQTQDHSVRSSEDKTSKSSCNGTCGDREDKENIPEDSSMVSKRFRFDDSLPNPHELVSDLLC
Put plainly: Drak2 activity test, ADP-Glo kinase assay (Promega). It is filed as biochemical. To be noted: inhibition of Drak2 kinase activity, 2 h room temperature, activity range classes, read-out: IC50_Drak2. (ADP-Glo turns the ADP formed in a reaction into a luminescent signal.)
Turning to `COc1cc(-c2cncc(-c3cc(NC(=O)CC4CC4)cs3)n2)ccc1C(=O)N1CCOCC1` [Example B31, 2-cyclopropyl-N-(5-(6-(3-methoxy-4-(morpholine-4-carbonyl)phenyl)pyrazin-2-yl)thiophen-3-yl)acetamide], the IC50 lay within 0.011 to 0.1 µM.

With `COc1cc(-c2cncc(-c3cc(NC(=O)CC4CCC4)cs3)n2)ccc1C(=O)N1CCOCC1` [Example B32, 2-cyclobutyl-N-(5-(6-(3-methoxy-4-(morpholine-4-carbonyl)phenyl)pyrazin-2-yl)thiophen-3-yl)acetamide], the IC50 is 0.011 to 0.1 µM.

`COc1cc(-c2cncc(-c3cc(NC(=O)CC4CCCC4)cs3)n2)ccc1C(=O)N1CCOCC1` [Example B33, 2-cyclopentyl-N-(5-(6-(3-methoxy-4-(morpholine-4-carbonyl)phenyl)pyrazin-2-yl)thiophen-3-yl)acetamide]: the IC50 was 0.011 to 0.1 µM.

Turning to `COc1cc(-c2cncc(-c3cc(NC(=O)CC4CC4)cs3)n2)ccc1CN1CCOCC1` [Example B34, 2-cyclopropyl-N-(5-(6-(3-methoxy-4-(morpholinomethyl)phenyl)pyrazin-2-yl)thiophen-3-yl)acetamide], the IC50 is 0.101 to 1 µM.

As to `COc1cc(-c2cncc(-c3cc(NC(=O)CC4CCC4)cs3)n2)ccc1CN1CCOCC1` [Example B35, 2-cyclobutyl-N-(5-(6-(3-methoxy-4-(morpholinomethyl)phenyl)pyrazin-2-yl)thiophen-3-yl)acetamide], the IC50 lay within 0.101 to 1 µM.

In the case of `COc1cc(-c2cncc(-c3cc(NC(=O)CC4CCCC4)cs3)n2)ccc1CN1CCOCC1` [Example B36, 2-cyclopentyl-N-(5-(6-(3-methoxy-4-(morpholinomethyl)phenyl)pyrazin-2-yl)thiophen-3-yl)acetamide], the IC50 is 0.101 to 1 µM.

Take `CCCCC(=O)Nc1csc(-c2cncc(-c3ccc(C(=O)N4CCN(C)CC4)c(OC)c3)n2)c1` [Example B37, N-(5-(6-(3-methoxy-4-(4-methylpiperazine-1-carbonyl)phenyl)pyrazin-2-yl)thiophen-3-yl)pentanamide]: the IC50 fell in the range of 0.011 to 0.1 µM.

On to `COc1cc(-c2cncc(-c3cc(NC(=O)CC4CC4)cs3)n2)ccc1C(=O)N1CCN(C)CC1` [Example B38, 2-cyclopropyl-N-(5-(6-(3-methoxy-4-(4-methylpiperazine-1-carbonyl)phenyl)pyrazin-2-yl)thiophen-3-yl)acetamide], for which the IC50 fell in the range of 0.011 to 0.1 µM.

As for `COc1cc(-c2cncc(-c3cc(NC(=O)CC4CCC4)cs3)n2)ccc1C(=O)N1CCN(C)CC1` [Example B39, 2-cyclobutyl-N-(5-(6-(3-methoxy-4-(4-methylpiperazine-1-carbonyl)phenyl)pyrazin-2-yl)thiophen-3-yl)acetamide], the IC50 lay within 0.011 to 0.1 µM.

`COc1cc(-c2cncc(-c3cc(NC(=O)CC4CCCC4)cs3)n2)ccc1C(=O)N1CCN(C)CC1` [Example B40, 2-cyclopentyl-N-(5-(6-(3-methoxy-4-(4-methylpiperazine-1-carbonyl)phenyl)pyrazin-2-yl)thiophen-3-yl)acetamide]: the IC50 lay in the range of 0.011 to 0.1 µM.

Turning to `CCCCC(=O)Nc1csc(-c2cncc(-c3ccc(C(=O)Nc4cn(C)nc4OC)c(OC)c3)n2)c1` [Example B41, 2-methoxy-N-(3-methoxy-1-methyl-1H-pyrazol-4-yl)-4-(6-(4-pentanamidothiophen-2-yl)pyrazin-2-yl)benzamide], the IC50 lay within 0.101 to 1 µM.

As for `COc1cc(-c2cncc(-c3cc(NC(=O)CC4CC4)cs3)n2)ccc1C(=O)Nc1cn(C)nc1OC` [Example B42, 4-(6-(4-(2-cyclopropylacetamido)thiophen-2-yl)pyrazin-2-yl)-2-methoxy-N-(3-methoxy-1-methyl-1H-pyrazol-4-yl)benzamide], the IC50 is 0.101 to 1 µM.

`COc1cc(-c2cncc(-c3cc(NC(=O)CC4CCC4)cs3)n2)ccc1C(=O)Nc1cnn(C)c1OC` [Example B43, 4-(6-(4-(2-cyclobutylacetamido)thiophen-2-yl)pyrazin-2-yl)-2-methoxy-N-(5-methoxy-1-methyl-1H-pyrazol-4-yl)benzamide]: the IC50 is 0.101 to 1 µM.

Regarding `COc1cc(-c2cncc(-c3cc(NC(=O)CC4CCCC4)cs3)n2)ccc1C(=O)Nc1cnn(C)c1OC` [Example B44, 4-(6-(4-(2-cyclopentylacetamido)thiophen-2-yl)pyrazin-2-yl)-2-methoxy-N-(5-methoxy-1-methyl-1H-pyrazol-4-yl)benzamide], the IC50 lay in the range of 0.101 to 1 µM.

Take `COc1cc(-c2cncc(-c3cc(NC(=O)CC45CC(C4)C5)cs3)n2)ccc1C(=O)N1CCOCC1` [Example B45, 2-(bicyclo[1.1.1]pentan-1-yl)-N-(5-(6-(3-methoxy-4-(morpholine-4-carbonyl)phenyl)pyrazin-2-yl)thiophen-3-yl)acetamide]: the IC50 fell in the range of 0.011 to 0.1 µM.

Turning to `COc1cc(-c2cncc(-c3cc(NC(=O)CC4CC4)cs3)n2)ccc1C(=O)Nc1nnco1` [Example B46, 4-(6-(4-(2-cyclopropylacetamido)thiophen-2-yl)pyrazin-2-yl)-2-methoxy-N-(1,3,4-oxadiazol-2-yl)benzamide], the IC50 lay in the range of 0.011 to 0.1 µM.

`CCCCC(=O)Nc1csc(-c2cncc(-c3ccc(C(=O)N4CCN(C5CCN(C)CC5)CC4)c(OC)c3)n2)c1` [Example B47, N-(5-(6-(3-methoxy-4-(4-(1-methylpiperidin-4-yl)piperazine-1-carbonyl)phenyl)pyrazin-2-yl)thiophen-3-yl)pentanamide]: the IC50 is 0.011 to 0.1 µM.

Consider `COc1cc(-c2cncc(-c3cc(NC(=O)CC4CC4)cs3)n2)ccc1C(=O)N1CCC(OC)CC1` [Example B48, 2-cyclopropyl-N-(5-(6-(3-methoxy-4-(4-methoxypiperidine-1-carbonyl)phenyl)pyrazin-2-yl)thiophen-3-yl)acetamide], for which the IC50 lay in the range of 0.011 to 0.1 µM.

In the case of `COc1cc(-c2cncc(-c3cc(NC(=O)CC4CCC4)cs3)n2)ccc1C(=O)N1CCC(OC)CC1` [Example B49, 2-cyclobutyl-N-(5-(6-(3-methoxy-4-(4-methoxypiperidine-1-carbonyl)phenyl)pyrazin-2-yl)thiophen-3-yl)acetamide], the IC50 was in the range of 0.011 to 0.1 µM.

For the compound `COc1cc(-c2cncc(-c3cc(NC(=O)CC4CC4)cs3)n2)ccc1C(=O)N1CCN(C2CCN(C)CC2)CC1` [Example B50, 2-cyclopropyl-N-(5-(6-(3-methoxy-4-(4-(1-methylpiperidin-4-yl)piperazine-1-carbonyl)phenyl)pyrazin-2-yl)thiophen-3-yl)acetamide], the IC50 lay within 0.011 to 0.1 µM.

As to `COc1cc(-c2cncc(-c3cc(NC(=O)CC4CCC4)cs3)n2)ccc1C(=O)N1CCN(C2CCN(C)CC2)CC1` [Example B51, 2-cyclobutyl-N-(5-(6-(3-methoxy-4-(4-(1-methylpiperidin-4-yl)piperazine-1-carbonyl)phenyl)pyrazin-2-yl)thiophen-3-yl)acetamide], the IC50 is 0.011 to 0.1 µM.

Consider `COc1cc(-c2cncc(-c3cc(NC(=O)CC4CCCC4)cs3)n2)ccc1C(=O)N1CCN(C2CCN(C)CC2)CC1` [Example B52, 2-cyclopentyl-N-(5-(6-(3-methoxy-4-(4-(1-methylpiperidin-4-yl)piperazine-1-carbonyl)phenyl)pyrazin-2-yl)thiophen-3-yl)acetamide], for which the IC50 was 0.011 to 0.1 µM.

For the compound `CCCCC(=O)Nc1csc(-c2cncc(-c3ccc(C(=O)N4CCC(OC)CC4)c(OC)c3)n2)c1` [Example B53, N-(5-(6-(3-methoxy-4-(4-methoxypiperidine-1-carbonyl)phenyl)pyrazin-2-yl)thiophen-3-yl)pentanamide], the IC50 is 0.011 to 0.1 µM.

For `COc1cc(-c2cncc(-c3cc(NC(=O)CC4CCCC4)cs3)n2)ccc1C(=O)N1CCC(OC)CC1` [Example B54, 2-cyclopentyl-N-(5-(6-(3-methoxy-4-(4-methoxypiperidine-1-carbonyl)phenyl)pyrazin-2-yl)thiophen-3-yl)acetamide], the IC50 lay in the range of 0.011 to 0.1 µM.

On to `CCCCC(=O)Nc1csc(-c2cncc(-c3ccc(C(=O)N(C)CCN(C)C)c(OC)c3)n2)c1` [Example B55, N-(2-(dimethylamino)ethyl)-2-methoxy-N-methyl-4-(6-(4-pentanamidothiophen-2-yl)pyrazin-2-yl)benzamide], for which the IC50 is 0.011 to 0.1 µM.

With `COc1cc(-c2cncc(-c3cc(NC(=O)CC4CC4)cs3)n2)ccc1C(=O)N(C)CCN(C)C` [Example B56, 4-(6-(4-(2-cyclopropylacetamido)thiophen-2-yl)pyrazin-2-yl)-N-(2-(dimethylamino)ethyl)-2-methoxy-N-methylbenzamide], the IC50 is below 0.01 µM.

Regarding `COc1cc(-c2cncc(-c3cc(NC(=O)CC4CCC4)cs3)n2)ccc1C(=O)N(C)CCN(C)C` [Example B57, 4-(6-(4-(2-cyclobutylacetamido)thiophen-2-yl)pyrazin-2-yl)-N-(2-(dimethylamino)ethyl)-2-methoxy-N-methylbenzamide], the IC50 fell in the range of 0.011 to 0.1 µM.

As to `COc1cc(-c2cncc(-c3cc(NC(=O)CC4CCCC4)cs3)n2)ccc1C(=O)N(C)CCN(C)C` [Example B58, 4-(6-(4-(2-cyclopentylacetamido)thiophen-2-yl)pyrazin-2-yl)-N-(2-(dimethylamino)ethyl)-2-methoxy-N-methylbenzamide], the IC50 was in the range of 0.011 to 0.1 µM.

`CCCCC(=O)Nc1csc(-c2cncc(-c3ccc(C(=O)N(C)C4CCN(C)CC4)c(OC)c3)n2)c1` [Example B59, 2-methoxy-N-methyl-N-(1-methylpiperidin-4-yl)-4-(6-(4-pentanamidothiophen-2-yl)pyrazin-2-yl)benzamide]: the IC50 is below 0.01 µM.

With `COc1cc(-c2cncc(-c3cc(NC(=O)CC4CC4)cs3)n2)ccc1C(=O)N(C)C1CCN(C)CC1` [Example B60, 4-(6-(4-(2-cyclopropylacetamido)thiophen-2-yl)pyrazin-2-yl)-2-methoxy-N-methyl-N-(1-methylpiperidin-4-yl)benzamide], the IC50 lay within 0.011 to 0.1 µM.
